Experimental data published in US20220401514A1, “ANTIMICROBIAL, BACTERIOPHAGE-DERIVED POLYPEPTIDES AND THEIR USE AGAINST GRAM-NEGATIVE AND ACID-FAST BACTERIA” (CONTRAFECT CORPORATION, priority 2019, published 2022).
Like-named read-outs stand apart in the source and are kept apart here.

Experiments:
[1] = system: carbapenem-resistant P. aeruginosa clinical isolate CFS-1292; assay: MIC by modified CLSI broth microdilution against P. aeruginosa CFS-1292 (CAA, CAA + human serum); format: cell-based, Pseudomonas aeruginosa
Pseudomonas aeruginosa = assay: microbe, parasite or virus in culture; format: cell-based; conditions: for MIC: CAA without human serum
Enterobacter cloacae = assay: microbe, parasite or virus in culture; format: cell-based
How it was run: (§1)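 Human serum was added to CAA broth for these MIC determinations with peptides.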

Escherichia coli = assay: microbe, parasite or virus in culture; format: cell-based
How it was run: as §1

Klebsiella pneumoniae [2] = format: cell-based
Protocol: (§2) Determination of Minimal Inhibitory Concentrations (MIC).
Additional MIC testing was performed for several peptides against the ESKAPE pathogens Escherichia coli, Enterobacter cloacae, Klebsiella pneumoniae, and Acinetobacter baumannii, in CAA supplemented with human serum (Table D).

Acinetobacter baumannii = assay: microbe, parasite or virus in culture; format: cell-based
S. maltophilia = assay: MIC against S. maltophilia isolates; format: cell-based, Stenotrophomonas maltophilia; conditions: S. maltophilia isolates (n per peptide in table)
How it was run: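 Chp peptides were tested on a set of S. maltophilia isolates (n = isolates per species), with minimal inhibitory concentrations given in μg/mL.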

[3] = system: carbapenem-resistant bacterial strains; assay: organism not typed; format: cell-based
Description: as §2

[4] = Stability assessment in 100% CAA; format: in vitro ADME; design: unit not given beside the values
Protocol: Stability was assessed after incubation in 100% human serum at 37° C. after 10 minutes, 1 hour, and 2 hours.
Stability assessment was further conducted in 100% CAA and rabbit serum using the same methodology discussed above.

M. smegmatis = assay: 45 hr MIC against M. smegmatis (NTM), Mueller Hinton broth; format: cell-based, Mycobacterium smegmatis
M. fortuitum = assay: 45 hr MIC against M. fortuitum (NTM); format: cell-based, Mycobacterium fortuitum; conditions: M. fortuitum subsp. Fortuitum da Costa Cruz. ATCC 6841
M. avium = assay: 45 hr MIC against M. avium (NTM); format: cell-based, Mycobacterium avium; conditions: M. avium Chester ATCC 700898
M. scrofulaceum = assay: 45 hr MIC against M. scrofulaceum (NTM); format: cell-based, Mycobacterium scrofulaceum; conditions: M. scrofulaceum Prissick and Masson ATCC 19981
M. intracellulare = assay: 45 hr MIC against M. intracellulare (NTM); format: cell-based, Mycobacterium intracellulare; conditions: M. intracellulare (Cuttino and McCabe) Runyon ATCC 13950
[5] = system: P. aeruginosa strain CFS-1292; assay: MIC in presence and absence of NaCl (140 mM); format: cell-based, Pseudomonas aeruginosa
Protocol: Certain Chp peptides were evaluated over a range of physiological NaCl levels and pH values, and were further evaluated for activity in the presence of various divalent cations.

[6] = system: M. kansasii Hauduroy ATCC 12478; assay: 45 hr MIC against M. kansasii (NTM), Mueller Hinton broth; format: cell-based, Mycobacterium kansasii
[7] = system: Mycobacterium tuberculosis strains
Protocol: MIC values for various Chp peptides were determined using the CLSI method for broth microdilution in 96-well microtiter format.
Next, MIC values for various Chp peptides were determined using the CLSI method above for broth microdilution in 96-well microtiter format for two different Mycobacterium tuberculosis strains. The MIC was determined as explained above for the NTM strains.

Klebsiella pneumoniae [8] = assay: microbe, parasite or virus in culture; format: cell-based; conditions: CAA without human serum
[9] = system: P. aeruginosa strain PAO1; assay: MIC against PAO1 in Mueller-Hinton broth with 50% human plasma or human serum; format: cell-based, Pseudomonas aeruginosa; conditions: PAO1
[10] = system: A. baumannii strain BAA-747 persister cells; assay: Activity against persister cells, A. baumannii; format: cell-based, Acinetobacter baumannii; conditions: A. baumannii BAA-747 persister cells
[11] = system: P. aeruginosa strain PA20 persister cells; assay: Activity against persister cells, P. aeruginosa; format: cell-based, Pseudomonas aeruginosa; conditions: P. aeruginosa PA20 persister cells
[12] = P. aeruginosa isolates (n per peptide in table)
[13] = E. cloacae isolates (n per peptide in table)
[14] = E. coli isolates (n per peptide in table)
[15] = K. pneumoniae isolates (n per peptide in table)
[16] = A. baumannii isolates (n per peptide in table)
[17] = log10 CFU/mL reduction as compared to buffer

## MARSRRRMSKRSSRRSFRKYAKSHKKNFKARSMRGGIRL [Ecp2]
[1]; 100% CAA, 1st run or single value
  MIC (μg/mL) against CFS-1292 in 100% CAA (1st run/2nd run): 0.25 µg/mL
[1]; CAA + […] human serum
  MIC (μg/mL) against CFS-1292 in CAA + […] human serum: 0.25 µg/mL
Pseudomonas aeruginosa; P. aeruginosa 453 (Human clinical isolate, HSS), RSC 1292
  MIC: 8 µg/mL
Pseudomonas aeruginosa; P. aeruginosa (ATCC 14213, human hip wound), RSC 1111
  MIC: 4 µg/mL
Pseudomonas aeruginosa; P. aeruginosa (ATCC 15152, abscess in middle ear), RSC 1110
  MIC: 1 µg/mL
Pseudomonas aeruginosa; P. aeruginosa (ATCC 15692, infected wound), RSC 489
  MIC: 2 µg/mL
Pseudomonas aeruginosa; P. aeruginosa (ATCC 15692, infected wound), RSC 1115
  MIC: 8 µg/mL
Pseudomonas aeruginosa; P. aeruginosa (ATCC 17646, human liver abscess), RSC 1109
  MIC: 4 µg/mL
Pseudomonas aeruginosa; P. aeruginosa (ATCC 19142, tracheobronchial secretion), RSC 1108
  MIC: 4 µg/mL
Pseudomonas aeruginosa; P. aeruginosa (ATCC 25102, bacteriophage host), RSC 1114
  MIC: 2 µg/mL
Pseudomonas aeruginosa; P. aeruginosa (ATCC 27853, MIC control strain), RSC 815
  MIC: 2 µg/mL
Pseudomonas aeruginosa; P. aeruginosa (ATCC BAA-27, lab strain), RSC 1113
  MIC: 2 µg/mL
Pseudomonas aeruginosa; P. aeruginosa (PAO1, alternate source, HER1018), RSC 490
  MIC: 2 µg/mL
Pseudomonas aeruginosa; [12]
  MIC50: 2 µg/mL
  MIC100: 8 µg/mL
  MIC Range: 0.5 to 8 µg/mL
Enterobacter cloacae; [13]
  MIC50: 0.25 µg/mL
  MIC100: 0.5 µg/mL
  MIC Range: 0.125 to 2 µg/mL
Enterobacter cloacae; Enterobacter cloacae (ATCC 13047, MIC control strain), RSC 1240, CAA without human serum
  MIC: 4 µg/mL
Enterobacter cloacae; Enterobacter cloacae ATCC 13047, CAA supplemented with human serum
  MIC: 16 µg/mL
Escherichia coli; E. coli (ATCC 25922, MIC control strain), RSC 813, CAA without human serum
  MIC: 2 µg/mL
Escherichia coli; E. coli (HM346, colon, Crohn's disease), RSC 1212, CAA without human serum
  MIC: 4 µg/mL
Escherichia coli; [14]
  MIC50: 0.5 µg/mL
  MIC100: 1 µg/mL
  MIC Range: 0.24 to 4 µg/mL
Escherichia coli; Escherichia coli ATCC 25922, CAA supplemented with human serum
  MIC: 0.5 µg/mL
Klebsiella pneumoniae [2]; [15]
  MIC50: 0.5 µg/mL
  MIC100: 1 µg/mL
  MIC Range: 0.5 to 1 µg/mL
Klebsiella pneumoniae [2]; Klebsiella pneumoniae HM-44, CAA supplemented with human serum
  MIC: 0.25 µg/mL
Acinetobacter baumannii; [16]
  MIC50: 0.25 µg/mL
  MIC100: 0.5 µg/mL
  MIC Range: 0.125 to 0.5 µg/mL
Acinetobacter baumannii; Acinetobacter baumannii (clinical isolate HSS), RSC 30, CAA without human serum
  MIC: 2 µg/mL
Acinetobacter baumannii; Acinetobacter baumannii (clinical isolate HSS), RSC 32, CAA without human serum
  MIC: 2 µg/mL
Acinetobacter baumannii; Acinetobacter baumannii ATCC BAA 747, CAA supplemented with human serum
  MIC: 1 µg/mL
S. maltophilia
  MIC50: 8 µg/mL
  MIC100: >8 µg/mL
[3]; carbapenem-resistant isolate PA19
  MIC: 0.5 µg/mL
[3]; carbapenem-resistant isolate PA20
  MIC: 8 µg/mL
[3]; carbapenem-resistant isolate PA21
  MIC: 8 µg/mL
[3]; carbapenem-resistant isolate PA22
  MIC: 4 µg/mL
[3]; carbapenem-resistant isolate PA23
  MIC: 2 µg/mL
[3]; carbapenem-resistant isolate PA24
  MIC: 2 µg/mL
[3]; carbapenem-resistant isolate WLC-452
  MIC: 1 µg/mL
[4]
  MIC (100% CAA): 0.25
M. smegmatis; M. smegmatis MC^2 155, Run #1
  45 hr MIC: 4 µg/mL
M. smegmatis; M. smegmatis MC^2 155, Run #2
  45 hr MIC: 8 µg/mL
M. fortuitum
  45 hr MIC: 4 µg/mL
M. avium
  45 hr MIC: 2 µg/mL
M. scrofulaceum
  45 hr MIC: 4 µg/mL
M. intracellulare
  45 hr MIC: 8 µg/mL
[5]; CAA + 140 mM NaCl versus CAA without added NaCl
  Fold change in MIC: 8
[5]; CAA + 140 mM NaCl, P. aeruginosa CFS-1292
  MIC, CAA + 140 mM NaCl: 2 µg/mL
[5]; CAA, no added NaCl, P. aeruginosa CFS-1292
  MIC, CAA (no added NaCl): 0.25 µg/mL
[6]
  45 hr MIC: 2 µg/mL
[7]; Mycobacterium tuberculosis (Zopf) Lehmann and Neumann ATCC 25177
  MIC: 32 µg/mL
[7]; Mycobacterium tuberculosis (Zopf) Lehmann and Neumann ATCC 35817
  MIC: 8 µg/mL
Klebsiella pneumoniae [8]; Klebsiella pneumoniae (ATCC 10031, MIC control strain), RSC 814
  MIC: 4 µg/mL
Klebsiella pneumoniae [8]; Klebsiella pneumoniae (g2-3 HM35K), RSC 1138
  MIC: 2 µg/mL
Klebsiella pneumoniae [8]; Klebsiella sp. (HM-44; colon, Crohn's disease), RSC 1139
  MIC: 4 µg/mL
Klebsiella pneumoniae [8]; Klebsiella spp. (HM-223; gut of Crohn's disease patient), RSC 1131
  MIC: 2 µg/mL

## PGLa
[9]; Mueller-Hinton broth with 50% human plasma
  Minimal inhibitory concentration, Human Plasma: >64 µg/mL
[9]; Mueller-Hinton broth with human serum
  Minimal inhibitory concentration, Human Serum: >64 µg/mL

## Lysozyme
[10]; 1 hour at 37° C., Run #1, limit of detection 1.6-log10 CFU/mL
  MIC Log10 (CFU/mL) Run #1: 3.5 Log10 (CFU/mL)
[10]; 1 hour at 37° C., Run #2, limit of detection 1.6-log10 CFU/mL
  MIC Log10 (CFU/mL) Run #2: 5.2 Log10 (CFU/mL)
[10]; 1 hour at 37° C., Run #3, limit of detection 1.6-log10 CFU/mL
  MIC Log10 (CFU/mL) Run #3: 5.0 Log10 (CFU/mL)
[10]; average of 3 runs
  MIC Log10 (CFU/mL) Average: 4.6 Log10 (CFU/mL)
[10]; [17]
  Delta Log: 0.3
[11]; Run #1, limit of detection 2-log10 CFU/mL
  Viable persister count after treatment (log10 CFU/mL): 4.7 Log10 (CFU/mL)
[11]; Run #2, limit of detection 2-log10 CFU/mL
  Viable persister count after treatment (log10 CFU/mL): 4.4 Log10 (CFU/mL)
[11]; Run #3, limit of detection 2-log10 CFU/mL
  Viable persister count after treatment (log10 CFU/mL): 4.2 Log10 (CFU/mL)
[11]; average of 3 runs
  Viable persister count after treatment (log10 CFU/mL): 4.4 Log10 (CFU/mL)
[11]; [17]
  Delta Log: 0.0
